Several values for one entry are separate records, joined by “and”; a condition that tells them apart may be missing. Equal entries are not always repeated.
Tested on: 616215-338-R-J1-PDC complex spheroids, viability % test/control
Assay: Anticancer human tumor 616215-338-R-J1-PDC patient-derived colon adenocarcinoma cell line growth inhibition [CLK]
Conditions: for viability, T/C: stronger effect = lower value
Outline: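 Multi-cell-type spheroids combined patient-derived tumor cells with HUVEC endothelial cells and human mesenchymal stem cells. Paired agents were dosed in half-log steps down from about clinical Cmax, or from 10 microM where Cmax was unknown.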

[1] = curve of first compound, second compound 0.0316 µM
[2] = curve of first compound, second compound 0.1 µM
[3] = curve of first compound, second compound 0.316 µM
[4] = curve of first compound, second compound 1 µM
[5] = curve of first compound, second compound 3.16 µM
[6] = curve of first compound, second compound 10 µM
[7] = second compound 0.0316 µM, first compound 0.0316 µM
[8] = second compound 0.0316 µM, first compound 0.1 µM
[9] = second compound 0.1 µM, first compound 0.0316 µM
[10] = second compound 0.1 µM, first compound 0.1 µM
[11] = second compound 0.316 µM, first compound 0.0316 µM
[12] = second compound 0.316 µM, first compound 0.1 µM
[13] = second compound 1 µM, first compound 0.0316 µM
[14] = second compound 1 µM, first compound 0.1 µM
[15] = second compound 3.16 µM, first compound 0.0316 µM
[16] = second compound 3.16 µM, first compound 0.1 µM
[17] = second compound 10 µM, first compound 0.0316 µM
[18] = second compound 10 µM, first compound 0.1 µM
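Also: spheroids exposed to agents for 7 days.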
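For viability, T/C in this document: 100% = DMSO vehicle wells.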

Nc1ccccc1NC(=O)c1ccc(CNC(=O)OCc2cccnc2)cc1 + CNC(=O)c1ccc(Nc2nc(OC3CCCC3)c3c(-c4ccc5nc(C)oc5c4)c[nH]c3n2)c(OC)c1 was tested, and the IC50 [1] was 5080 nM, the IC50 [2] was 85 nM and the IC50 [3] was < 31.6 nM. The IC50 [4] was < 31.6 nM, the IC50 [5] was < 31.6 nM and the IC50 [6] was < 31.6 nM. It also gave a viability, T/C [7] of 86.2%, a viability, T/C [8] of 82% and a viability, T/C (second compound 0.0316 µM, first compound 0.316 µM) of 80.2%. The viability, T/C (second compound 0.0316 µM, first compound 1 µM) was 96.7%, the viability, T/C (second compound 0.0316 µM, first compound 3.16 µM) was 72.5% and the viability, T/C (second compound 0.0316 µM, first compound 10 µM) was 17.7%. For the same molecule, the viability, T/C [9] was 56.1%, the viability, T/C [10] was 48.9% and the viability, T/C (second compound 0.1 µM, first compound 0.316 µM) was 37.3%. It also gave a viability, T/C (second compound 0.1 µM, first compound 1 µM) of 36.1%, a viability, T/C (second compound 0.1 µM, first compound 3.16 µM) of 36.7% and a viability, T/C (second compound 0.1 µM, first compound 10 µM) of 10.6%. It also gave a viability, T/C [11] of 40.7%, a viability, T/C [12] of 39.4% and a viability, T/C (second compound 0.316 µM, first compound 0.316 µM) of 35.9%. It also gave a viability, T/C (second compound 0.316 µM, first compound 1 µM) of 34%, a viability, T/C (second compound 0.316 µM, first compound 3.16 µM) of 29.3% and a viability, T/C (second compound 0.316 µM, first compound 10 µM) of 7.21%. It also gave a viability, T/C [13] of 42.7%, a viability, T/C [14] of 36.7% and a viability, T/C (second compound 1 µM, first compound 0.316 µM) of 32.8%. The viability, T/C (second compound 1 µM, first compound 1 µM) was 29.1%, the viability, T/C (second compound 1 µM, first compound 3.16 µM) was 24.8% and the viability, T/C (second compound 1 µM, first compound 10 µM) was 6.92%. It also gave a viability, T/C [15] of 35.1%, a viability, T/C [16] of 35.8% and a viability, T/C (second compound 3.16 µM, first compound 0.316 µM) of 28.5%. It also gave a viability, T/C (second compound 3.16 µM, first compound 1 µM) of 26.9%, a viability, T/C (second compound 3.16 µM, first compound 3.16 µM) of 22.7% and a viability, T/C (second compound 3.16 µM, first compound 10 µM) of 3.91%. For the same molecule, the viability, T/C [17] was 34.3%, the viability, T/C [18] was 30.8% and the viability, T/C (second compound 10 µM, first compound 0.316 µM) was 28%. For the same molecule, the viability, T/C (second compound 10 µM, first compound 1 µM) was 24%, the viability, T/C (second compound 10 µM, first compound 3.16 µM) was 23.8% and the viability, T/C (second compound 10 µM, first compound 10 µM) was 3.95%.

Cn1ncnc1[C@H]1c2n[nH]c(=O)c3cc(F)cc(c23)N[C@@H]1c1ccc(F)cc1 + CN1CCN(c2cc(C(=O)Nc3cc4cc(-c5cnn(C)c5)ccc4cn3)ccn2)CC1 was tested, and the IC50 [1] was > 100 nM, the IC50 [2] was > 100 nM and the IC50 [3] was < 0.316 nM. For the same molecule, the IC50 [4] was < 0.316 nM, the IC50 [5] was < 0.316 nM and the IC50 [6] was < 0.316 nM. The viability, T/C (second compound 0.0316 µM, first compound 0.000316 µM) was 113%, the viability, T/C (second compound 0.0316 µM, first compound 0.001 µM) was 96.3% and the viability, T/C (second compound 0.0316 µM, first compound 0.00316 µM) was 99.7%. The viability, T/C (second compound 0.0316 µM, first compound 0.01 µM) was 122%, the viability, T/C [7] was 98.3% and the viability, T/C [8] was 112%. The viability, T/C (second compound 0.1 µM, first compound 0.000316 µM) was 119%, the viability, T/C (second compound 0.1 µM, first compound 0.001 µM) was 106% and the viability, T/C (second compound 0.1 µM, first compound 0.00316 µM) was 102%. The viability, T/C (second compound 0.1 µM, first compound 0.01 µM) was 105%, the viability, T/C [9] was 101% and the viability, T/C [10] was 69.5%. For the same molecule, the viability, T/C (second compound 0.316 µM, first compound 0.000316 µM) was 29.3%, the viability, T/C (second compound 0.316 µM, first compound 0.001 µM) was 35.2% and the viability, T/C (second compound 0.316 µM, first compound 0.00316 µM) was 39.2%. The viability, T/C (second compound 0.316 µM, first compound 0.01 µM) was 38.7%, the viability, T/C [11] was 36.5% and the viability, T/C [12] was 32%. The viability, T/C (second compound 1 µM, first compound 0.000316 µM) was 0.12%, the viability, T/C (second compound 1 µM, first compound 0.001 µM) was 0.14% and the viability, T/C (second compound 1 µM, first compound 0.00316 µM) was 1.57%. The viability, T/C (second compound 1 µM, first compound 0.01 µM) was 0.1%, the viability, T/C [13] was 1.12% and the viability, T/C [14] was 4.26%. It also gave a viability, T/C (second compound 3.16 µM, first compound 0.000316 µM) of 0.1%, a viability, T/C (second compound 3.16 µM, first compound 0.001 µM) of 0.14% and a viability, T/C (second compound 3.16 µM, first compound 0.00316 µM) of 2.13%. For the same molecule, the viability, T/C (second compound 3.16 µM, first compound 0.01 µM) was 0.09%, the viability, T/C [15] was 0.08% and the viability, T/C [16] was 1.74%. The viability, T/C (second compound 10 µM, first compound 0.000316 µM) was 0.12%, the viability, T/C (second compound 10 µM, first compound 0.001 µM) was 0.17% and the viability, T/C (second compound 10 µM, first compound 0.00316 µM) was 0.13%. It also gave a viability, T/C (second compound 10 µM, first compound 0.01 µM) of 0.13%, a viability, T/C [17] of 1.65% and a viability, T/C [18] of 0.15%.

Nc1ccccc1NC(=O)c1ccc(CNC(=O)OCc2cccnc2)cc1 was tested, and the viability, T/C (compound 0.0316 µM) was 102% and 86.2%, the viability, T/C (compound 0.1 µM) was 98.2% and 95.1% and the viability, T/C (compound 0.316 µM) was 101% and 81.6%. For the same molecule, the viability, T/C (compound 1 µM) was 107% and 92.8%, the viability, T/C (compound 3.16 µM) was 55.6% and 80.4% and the viability, T/C (compound 10 µM) was 13.5% and 14.7%. For the same molecule, the IC50 (curve of compound) was 3690 nM and 5380 nM.

For COc1c(OCCCN2CCOCC2)ccc2c3n(c(=NC(=O)c4cnc(N)nc4)nc12)CCN3, the viability, T/C (compound 0.00316 µM) was 101% and 89.7%, the viability, T/C (compound 0.01 µM) was 111% and 96.4% and the viability, T/C (compound 0.0316 µM) was 106% and 114%. The viability, T/C (compound 0.1 µM) was 57.7% and 74.8%, the viability, T/C (compound 0.316 µM) was 36.1% and 46% and the viability, T/C (compound 1 µM) was 29% and 39.8%. For the same molecule, the IC50 (curve of compound) was 143 nM and 245 nM.
